The results in this text go back to patent US9828374B2, “Substituted pyrazino[2,2-a]isoquinoline derivatives” (Hoffmann-La Roche Inc., priority 2014, dated 2017).

The target in one assay is rat TAAR1 (Rattus norvegicus (Rat), UniProt Q923Y9). The experiment in a line: Radioligand binding assay on rat TAAR1. To be noted: rat TAAR1, HEK-293 membranes; second value of the mouse/rat pair. Here is the method:
(§1) Construction of TAAR Expression Plasmids and Stably Transfected Cell Lines
(§2) For the construction of expression plasmids the coding sequences of human, rat and mouse TAAR 1 were amplified from genomic DNA essentially as described by Lindemann et al..
(§3) The Expand High Fidelity PCR System (Roche Diagnostics) was used with 1.5 mM Mg^2+ and purified PCR products were cloned into pCR2.1-TOPO cloning vector (Invitrogen) following the instructions of the manufacturer. PCR products were subcloned into the pIRESneo2 vector (BD Clontech, Palo Alto, Calif.), and expression vectors were sequence verified before introduction in cell lines.
(§4) HEK293 cells (ATCC # CRL-1573) were cultured essentially as described by Lindemann et al. (2005). For the generation of stably transfected cell lines HEK293 cells were transfected with the pIRESneo2 expression plasmids containing the TAAR coding sequences (described above) with Lipofectamine 2000 (Invitrogen) according to the instructions of the manufacturer, and 24 hrs post transfection the culture medium was supplemented with 1 mg/ml G418 (Sigma, Buchs, Switzerland). After a culture period of about 10 d clones were isolated, expanded and tested for responsiveness to trace amines (all compounds purchased from Sigma) with the cAMP Biotrak Enzyme immunoassay (EIA) System (Amersham) following the non-acetylation EIA procedure provided by the manufacturer.
Radioligand Binding Assay on Rat TAAR1
(§5) Membrane Preparation and Radioligand Binding.
(§6) HEK-293 cells stably expressing rat TAAR1 were maintained at 37° C. and 5% CO2 in DMEM high glucose medium, containing fetal calf serum (10%, heat inactivated for 30 min at 56° C.), penicillin/streptomycin (1%), and 375 μg/ml geneticin (Gibco). Cells were released from culture flasks using trypsin/EDTA, harvested, washed twice with ice-cold PBS (without Ca^2+ and Mg^2+), pelleted at 1,000 rpm for 5 min at 4° C., frozen and stored at −80° C. Frozen pellets were suspended in 20 ml HEPES-NaOH (20 mM, pH 7.4) containing 10 mM EDTA and homogenized with a Polytron (PT 6000, Kinematica) at 14,000 rpm for 20 s. The homogenate was centrifuged at 48,000×g for 30 min at 4° C. Subsequently, the supernatant was removed and discarded, and the pellet resuspended in 20 ml HEPES-NaOH (20 mM, pH 7.4) containing 0.1 mM EDTA using the Polytron (20 s at 14,000 rpm). This procedure was repeated and the final pellet resuspended in HEPES-NaOH containing 0.1 mM EDTA and homogenized using the Polytron. Typically, aliquots of 2 ml membrane portions were stored at −80° C. With each new membrane batch the dissociation constant (Kd) was determined via a saturation curve. […] Nonspecific binding was defined as the amount of [H]-(S)-4-[(ethyl-phenyl-amino)-methyl]-4,5-dihydro-oxazol-2-ylamine bound in the presence of 10 μM unlabeled ligand. All compounds were tested at a broad range of concentrations (10 μM to 10 μM) in duplicates. […] The 96 deep well plates were incubated for 1 hr at 4° C. Incubations were terminated by rapid filtration through Unifilter-96 plates (Packard Instrument Company) and glass filters GF/C (Perkin Elmer) presoaked for 1 hr in polyethylenimine (0.3%) and washed 3 times with 1 ml of cold binding buffer. After addition of 45 μl of Microscint 40 (PerkinElmer) the Unifilter-96 plate was sealed and after 1 hr the radioactivity counted using a TopCount Microplate Scintillation Counter (Packard Instrument Company).

A further assay has as its target mouse TAAR1 (Mus musculus (Mouse), UniProt Q923Y8). Briefly: Radioligand binding assay on mouse TAAR1. To be noted: mouse TAAR1, HEK-293 membranes; first value of the mouse/rat pair. The procedure: as §1, §2, §3, §4
Radioligand Binding Assay on Mouse TAAR1
as §5
as §6, with “expressing mouse” for “expressing rat”, “of ^3[H]-(S)-4-[(ethyl-phenyl-amino)-methyl]-4,5-dihydro-oxazol-2-ylamine” for “of [H]-(S)-4-[(ethyl-phenyl-amino)-methyl]-4,5-dihydro-oxazol-2-ylamine”, “(10 pM” for “(10 μM”

SMILES strings stand for the structures.

Chain of mouse TAAR1 (Q923Y8 whole entry): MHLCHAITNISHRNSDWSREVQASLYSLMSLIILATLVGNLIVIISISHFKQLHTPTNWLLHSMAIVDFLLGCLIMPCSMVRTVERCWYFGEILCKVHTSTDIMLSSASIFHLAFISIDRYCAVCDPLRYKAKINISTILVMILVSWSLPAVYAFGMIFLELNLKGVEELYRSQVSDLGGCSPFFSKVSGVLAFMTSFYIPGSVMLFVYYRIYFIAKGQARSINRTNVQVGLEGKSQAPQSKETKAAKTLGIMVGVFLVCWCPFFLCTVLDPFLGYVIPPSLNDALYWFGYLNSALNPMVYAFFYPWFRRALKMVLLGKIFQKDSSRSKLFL
Chain of rat TAAR1 (Q923Y9 whole entry): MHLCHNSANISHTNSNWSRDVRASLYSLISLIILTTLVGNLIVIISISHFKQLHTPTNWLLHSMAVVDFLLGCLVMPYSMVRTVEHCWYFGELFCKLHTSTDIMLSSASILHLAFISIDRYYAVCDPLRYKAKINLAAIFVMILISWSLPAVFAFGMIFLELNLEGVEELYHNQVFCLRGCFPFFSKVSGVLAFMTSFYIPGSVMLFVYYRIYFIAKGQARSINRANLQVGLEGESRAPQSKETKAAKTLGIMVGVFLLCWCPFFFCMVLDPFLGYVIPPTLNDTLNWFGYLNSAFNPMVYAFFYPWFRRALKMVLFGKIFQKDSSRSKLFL

As a reminder, the Ki is a measure of affinity in units of concentration, obtained from inhibition or displacement. In the case of `Cc1cc(C(=O)Nc2ccc3c(c2)CCN2CCNC[C@@H]32)nc(C(F)(F)F)n1` [Example 38, (R)-N-(2,3,4,6,7,11b-hexahydro-1H-pyrazino[2,1-a]isoquinolin-9-yl)-6-methyl-2-(trifluoromethyl)pyrimidine-4-carboxamide], the results for the Ki on rat TAAR1 and on mouse TAAR1 were 0.157 µM and 0.222 µM, respectively.

Turning to `Fc1c(Nc2cc(Cl)nc(C(F)(F)F)n2)ccc2c1CCN1CCNC[C@H]21` [Example 31, (11bS)-N-[6-chloro-2-(trifluoromethyl)pyrimidin-4-yl]-8-fluoro-2,3,4,6,7,11b-hexahydro-1H-pyrazino[2,1-a]isoquinolin-9-amine], the figures for the Ki at rat TAAR1 and on mouse TAAR1 were 1.73 µM and 0.835 µM, respectively.

Turning to `FC(F)(F)c1nccc(Nc2ccc3c(c2)CCN2CCNC[C@@H]32)n1` [Example 5, (11bR)-N-[2-(trifluoromethyl)pyrimidin-4-yl]-2,3,4,6,7,11b-hexahydro-1H-pyrazino[2,1-a]isoquinolin-9-amine], the inhibition constant Ki was 0.0151 µM on rat TAAR1 and 0.0354 µM on mouse TAAR1.

As to `O=C(Nc1cc2c(cc1F)[C@@H]1CNCCN1CC2)c1ccnc(C(F)(F)F)c1` [Example 16, N-[(11bR)-10-fluoro-2,3,4,6,7,11b-hexahydro-1H-pyrazino[2,1-a]isoquinolin-9-yl]-2-(trifluoromethyl)pyridine-4-carboxamide], the Ki on rat TAAR1 is 1.5 µM; on mouse TAAR1, 0.175 µM.

As to `Cc1nsc(Nc2ccc3c(c2)CCN2CCNC[C@@H]32)n1` [Example 40, (R)-N-(2,3,4,6,7,11b-hexahydro-1H-pyrazino[2,1-a]isoquinolin-9-yl)-3-methyl-1,2,4-thiadiazol-5-amine], the Ki at rat TAAR1 was 0.826 µM; on mouse TAAR1 it was 0.202 µM.

On to `FC(F)(F)COc1cnc(Nc2ccc3c(c2)CCN2CCNC[C@@H]32)nc1` [Example 13, (R)-N-(5-(2,2,2-trifluoroethoxy)pyrimidin-2-yl)-2,3,4,6,7,11b-hexahydro-1H-pyrazino[2,1-a]isoquinolin-9-amine], for which the Ki on rat TAAR1 was determined as 0.0119 µM; on mouse TAAR1 it was 0.0078 µM.

On to `CN(C)c1cc(Nc2ccc3c(c2)CCN2CCNC[C@@H]32)nc(C(F)(F)F)n1` [Example 19, N4-[(11bR)-2,3,4,6,7,11b-hexahydro-1H-pyrazino[2,1-a]isoquinolin-9-yl]-N6,N6-dimethyl-2-(trifluoromethyl)pyrimidine-4,6-diamine], for which the Ki at rat TAAR1 was found to be 0.0076 µM; at mouse TAAR1 it was 0.0231 µM.

As for `O=C(Nc1ccc2c(c1)CCN1CCNC[C@@H]21)c1ccnc(C(F)(F)F)c1` [Example 1, N-[(11bR)-2,3,4,6,7,11b-hexahydro-1H-pyrazino[2,1-a]isoquinolin-9-yl]-2-(trifluoromethyl)pyridine-4-carboxamide], the results for the Ki at rat TAAR1 and on mouse TAAR1 were 0.199 µM and 0.121 µM, respectively.

In the case of `FC(F)(F)c1nc(Cl)cc(Nc2ccc3c(c2)CCN2CCNC[C@@H]32)n1` [Example 21, (11bR)-N-[6-chloro-2-(trifluoromethyl)pyrimidin-4-yl]-2,3,4,6,7,11b-hexahydro-1H-pyrazino[2,1-a]isoquinolin-9-amine], the Ki is 0.0134 µM at rat TAAR1 and 0.0264 µM at mouse TAAR1.

Turning to `c1cc2c(cc1Nc1ncc(C3CC3)cn1)CCN1CCNC[C@@H]21` [Example 14, (11bR)-N-(5-cyclopropylpyrimidin-2-yl)-2,3,4,6,7,11b-hexahydro-1H-pyrazino[2,1-a]isoquinolin-9-amine], the Ki worked out at 0.0192 µM on rat TAAR1 and 0.0066 µM on mouse TAAR1.

As for `COc1cc(Nc2ccc3c(c2)CCN2CCNC[C@@H]32)nc(C(F)(F)F)n1` [Example 18, (11bR)-N-[6-methoxy-2-(trifluoromethyl)pyrimidin-4-yl]-2,3,4,6,7,11b-hexahydro-1H-pyrazino[2,1-a]isoquinolin-9-amine], the figures for the Ki on rat TAAR1 and at mouse TAAR1 were 0.0092 µM and 0.0439 µM, respectively.

Regarding `O=C(Nc1ccc2c(c1)CCN1CCNC[C@H]21)c1cnc(C(F)(F)F)nc1` [Example 10, N-[(11bS)-2,3,4,6,7,11b-hexahydro-1H-pyrazino[2,1-a]isoquinolin-9-yl]-2-(trifluoromethyl)pyrimidine-5-carboxamide], the results for the inhibitory constant (Ki) on rat TAAR1 and at mouse TAAR1 were 0.191 µM and 0.189 µM, respectively.
